# Several values for one entry are separate records, joined by “and”; a condition that tells them apart may be missing. Identical values can stand only once. Like-named read-outs stand apart in the source and are kept apart here.
# Tests used:
# [1] = rabbit; ref [5] p.10; cited from earlier work
# [2] = cited from earlier work
# [3] = test system: Ncyte® vCardiomyocytes; test: Amphotericin-perforated whole-cell recordings on hiPSC-CM (current clamp and voltage clamp); assay type: cell-based, human; details: cenobamate 200 µM
# Experimental: Experiments were performed on HEK293T cell lines with persistent/inducible expression of different human cardiac ion channel isoforms: hNav1.5 and hKv7.1 + minK (Anaxon AG, Bern, Switzerland), hCav1.2 (α1c + β2 + α2δ1) (B’SYS GmbH, Witterswil, Switzerland), and hKv11.1 (hERG) (Cytocentrics Bioscience GmbH, Rostock, Germany). The cell lines were grown in standard conditions (37 °C, 5% CO2, 90% humidity) in DMEM:F12 medium (D8900, Sigma-Aldrich, Burlington, MA, USA) buffered with 15 mM HEPES, containing 3.15 g/L D-glucose and 0.055 g/L sodium pyruvate, supplemented with 1.2 g/L sodium bicarbonate, 10% fetal bovine serum (F2442, Sigma-Aldrich, Burlington, MA, USA), 2 mM L-glutamine (G7513, Sigma-Aldrich, Burlington, MA, USA), 1% penicillin–streptomycin (P4333, Sigma-Aldrich, Burlington, MA, USA), and with specific antibiotics for selection of transfected cells or induction of gene expression according to manufacturers’ instructions. The medium was changed every 2–3 days and the cells were passed weekly upon detachment with trypsin–EDTA solution. All cell culture media and solutions were sterile filtered with 0.22 μm polyvinylidene fluoride filters. Ncyte® vCardiomyocytes (Ncardia, Leiden, The Netherlands) were cultured in 24-well plates precoated with bovine fibronectin, following manufacturer’s instructions. For the experiments, cardiomyocytes were detached as described previously and plated on ϕ 10 mm glass coverslips, like the other cell lines.
# Experiments on Ncyte® vCardiomyocytes were performed via an amphotericin-perforated whole-cell approach, filling the pipettes with solution containing amphotericin B 300 µg/mL except for a small region near the tip that contained amphotericin-free solution. The voltage-clamp and current-clamp protocols were similar to those used in our previous studies; the following protocols were recorded in sequence before and at 3 min after application of cenobamate in the bath to a final concentration of 200 µM: • - Nav standard protocol: holding −90 mV, depolarizing step at −10 mV lasting 40 ms; • - Cav-Nav separation protocol: holding −80 mV, first step at −20 mV 200 ms, intermediate step at −40 mV 100 ms, second step at −50 mV to +50 mV 200 ms, in 10 mV increments in consecutive sweeps; • - hERG standard protocol: holding −70 mV, a brief preliminary step at −50 mV 100 ms, first step at +40 mV 2000 ms, second step at −120 mV/−50 mV 2000 ms (in consecutive sweeps); • - A double voltage ramp protocol: holding −80 mV, first ramp from −120 mV to +80 mV in 2000 ms, second ramp from +80 mV back to −120 mV in 2000 ms, sweeps repeated at 10 s intervals; • - A current-clamp protocol with external pacing: 3 current stimuli of 2 nA amplitude, duration 0.5 ms (up to 2.5 ms in some experiments) applied at 3 s intervals, first stimulus at 500 ms after start of recording; in cells with spontaneous pace-making, this phenomenon was suppressed by applying a steady hyperpolarizing current of −10 pA or −20 pA. […]
smiles,measurement,setting,value
NC(=O)O[C@@H](Cn1ncnn1)c1ccccc1Cl [cenobamate],protein binding,[1],35.4%
same,peak plasma therapeutic concentration (Cmax),"[2]; 400 mg/day, study YKP3089C018, ref [5] p. 13",45.5 µg/mL
same,Cmax,"[2]; read-out: Cmax (maximal effective therapeutic plasma concentration), 400 mg/day, ref [5] p. 13 / p. 10",170 µM
same,Cmax,"[2]; read-out: Cmax (model script), value entered in C++ script, ref [5]",170 µM
same,"%ICaL peak change, mean (Table S8)",[3]; hiPSC-CM,35.16%
same,"%INa peak change, mean (Table S8)",[3]; hiPSC-CM,27.43%
same,"%If change, mean (Table S8)",[3]; hiPSC-CM,19.89%
same,"APD90 ceno, mean (Table S8)",[3]; initial mean 1212.99 ms,619.83 ms
same,average APD90 shortening (%APD90 change),"[3]; mean (SD), n = 5",28.55% and 28.6 ± 13.5%

# Source: publication PMC11674187, “Inhibitory Effects of Cenobamate on Multiple Human Cardiac Ion Channels and Possible Arrhythmogenic Consequences” (Biomolecules, 2024)
